From ChEMBL document CHEMBL1629634, “Postantibiotic effect of tigecycline against 14 gram-positive organisms” (Antimicrob Agents Chemother, 2009)
≈ marks a conversion by molar mass, not a printed value.

Key:
Streptococcus pneumoniae [1] = assay: Antibacterial activity against penicillin-susceptible Streptococcus pneumoniae assessed as post-antibiotic sub-MIC effect at 0.3 times MIC concentration pretreated with 10 times MIC concentration for 1 hr followed by 1:1000 dilution by viable plate count method; assay type: functional
Escherichia coli [2] = assay: Antibacterial activity against Escherichia coli infected in neutropenic mouse thighs assessed as post antibiotic effect; assay type: functional, Thigh muscle
Acinetobacter baumannii [3] = assay: Antibacterial activity against Acinetobacter baumannii assessed as post antibiotic effect at 6 times MIC concentration incubated for 1 hr measured after 1:1000 dilution by viable plate count method; assay type: functional
Streptococcus pneumoniae [4] = assay: Antibacterial activity against penicillin-susceptible Streptococcus pneumoniae assessed as post-antibiotic sub-MIC effect at 0.4 times MIC concentration pretreated with 10 times MIC concentration for 1 hr followed by 1:1000 dilution by viable plate count method; assay type: functional
Klebsiella pneumoniae [5] = assay: Antibacterial activity against Klebsiella pneumoniae assessed as post-antibiotic sub-MIC effect at 0.4 times MIC concentration pretreated with 10 times MIC concentration for 1 hr followed by 1:1000 dilution by viable plate count method; assay type: functional
Staphylococcus aureus [6] = assay: Antibacterial activity against vancomycin-sensitive methicillin-resistant Staphylococcus aureus assessed as post-antibiotic sub-MIC effect at 0.3 times MIC concentration pretreated with 10 times MIC concentration for 1 hr followed by 1:1000 dilution by viable plate count method; assay type: functional
Streptococcus pneumoniae [7] = assay: Antibacterial activity against penicillin-intermediate Streptococcus pneumoniae assessed as sub-MIC effect at 0.2 times MIC concentration incubated for 1 hr by viable plate count method; assay type: functional
Acinetobacter baumannii [8] = assay: Antibacterial activity against Acinetobacter baumannii assessed as post-antibiotic sub-MIC effect at 0.4 times MIC concentration pretreated with 10 times MIC concentration for 1 hr followed by 1:1000 dilution by viable plate count method; assay type: functional
Escherichia coli [9] = assay: Antibacterial activity against Escherichia coli assessed as post-antibiotic sub-MIC effect at 0.3 times MIC concentration pretreated with 6 times MIC concentration for 1 hr followed by 1:1000 dilution by viable plate count method; assay type: functional
Streptococcus pneumoniae [10] = assay: Antibacterial activity against penicillin-susceptible Streptococcus pneumoniae by macrodilution method; assay type: functional
Acinetobacter baumannii [11] = assay: Antibacterial activity against Acinetobacter baumannii assessed as post-antibiotic sub-MIC effect at 0.3 times MIC concentration pretreated with 10 times MIC concentration for 1 hr followed by 1:1000 dilution by viable plate count method; assay type: functional
Enterococcus faecalis [12] = assay: Antibacterial activity against vancomycin-resistant Enterococcus faecalis assessed as sub-MIC effect at 0.2 times MIC concentration incubated for 1 hr by viable plate count method; assay type: functional
Streptococcus pneumoniae [13] = assay: Antibacterial activity against penicillin-intermediate Streptococcus pneumoniae by macrodilution method; assay type: functional
Acinetobacter baumannii [14] = assay: Antibacterial activity against Acinetobacter baumannii assessed as sub-MIC effect at 0.2 times MIC concentration incubated for 1 hr by viable plate count method; assay type: functional
Streptococcus pneumoniae [15] = assay: Antibacterial activity against penicillin-susceptible Streptococcus pneumoniae assessed as post-antibiotic sub-MIC effect at 0.2 times MIC concentration pretreated with 10 times MIC concentration for 1 hr followed by 1:1000 dilution by viable plate count method; assay type: functional
Streptococcus pneumoniae [16] = assay: Antibacterial activity against penicillin-intermediate Streptococcus pneumoniae assessed as post-antibiotic sub-MIC effect at 0.3 times MIC concentration pretreated with 10 times MIC concentration for 1 hr followed by 1:1000 dilution by viable plate count method; assay type: functional
Staphylococcus aureus [17] = assay: Antibacterial activity against vancomycin-sensitive methicillin-resistant Staphylococcus aureus assessed as post-antibiotic sub-MIC effect at 0.2 times MIC concentration pretreated with 6 times MIC concentration for 1 hr followed by 1:1000 dilution by viable plate count method; assay type: functional
Enterobacter cloacae [18] = assay: Antibacterial activity against Enterobacter cloacae assessed as sub-MIC effect at 0.4 times MIC concentration incubated for 1 hr by viable plate count method; assay type: functional
[19] = Drug level in patient serum at 100 mg, iv followed by 50 mg every 12 hrs after 60 mins post dose; assay type: ADME, organism-based; conditions: human, read-out: Drug uptake
Streptococcus pneumoniae [20] = assay: Antibacterial activity against penicillin-resistant Streptococcus pneumoniae assessed as sub-MIC effect at 0.2 times MIC concentration incubated for 1 hr by viable plate count method; assay type: functional
Enterococcus faecalis [21] = assay: Antibacterial activity against vancomycin-sensitive Enterococcus faecalis assessed as sub-MIC effect at 0.3 times MIC concentration incubated for 1 hr by viable plate count method; assay type: functional
Enterobacter cloacae [22] = assay: Antibacterial activity against Enterobacter cloacae assessed as post antibiotic effect at 10 times MIC concentration incubated for 1 hr measured after 1:1000 dilution by viable plate count method; assay type: functional
Klebsiella pneumoniae [23] = assay: Antibacterial activity against Klebsiella pneumoniae assessed as post antibiotic effect at 2 times MIC concentration incubated for 1 hr measured after 1:1000 dilution by viable plate count method; assay type: functional
Enterococcus faecalis [24] = assay: Antibacterial activity against vancomycin-sensitive Enterococcus faecalis assessed as sub-MIC effect at 0.2 times MIC concentration incubated for 1 hr by viable plate count method; assay type: functional
Escherichia coli [25] = assay: Antibacterial activity against Escherichia coli assessed as post-antibiotic sub-MIC effect at 0.2 times MIC concentration pretreated with 10 times MIC concentration for 1 hr followed by 1:1000 dilution by viable plate count method; assay type: functional
Haemophilus influenzae [26] = assay: Antibacterial activity against beta-lactamase deficient ampicillin-resistant Haemophilus influenzae assessed as post-antibiotic sub-MIC effect at 0.4 times MIC concentration pretreated with 10 times MIC concentration for 1 hr followed by 1:1000 dilution by viable plate count method; assay type: functional
Enterococcus faecalis [27] = assay: Antibacterial activity against vancomycin-resistant Enterococcus faecalis assessed as post-antibiotic sub-MIC effect at 0.2 times MIC concentration pretreated with 10 times MIC concentration for 1 hr followed by 1:1000 dilution by viable plate count method; assay type: functional
Haemophilus influenzae [28] = assay: Antibacterial activity against beta-lactamase deficient ampicillin-resistant Haemophilus influenzae assessed as post-antibiotic sub-MIC effect at 0.3 times MIC concentration pretreated with 10 times MIC concentration for 1 hr followed by 1:1000 dilution by viable plate count method; assay type: functional
Streptococcus pneumoniae [29] = assay: Antibacterial activity against penicillin-resistant Streptococcus pneumoniae by macrodilution method; assay type: functional
Escherichia coli [30] = assay: Antibacterial activity against Escherichia coli assessed as post antibiotic effect at 6 times MIC concentration incubated for 1 hr measured after 1:1000 dilution by viable plate count method; assay type: functional
Staphylococcus aureus [31] = assay: Antibacterial activity against vancomycin-sensitive methicillin-resistant Staphylococcus aureus assessed as post antibiotic effect at 6 times MIC concentration incubated for 1 hr measured after 1:1000 dilution by viable plate count method; assay type: functional
Haemophilus influenzae [32] = assay: Antibacterial activity against amoxicillin, clavulanate-resistant Haemophilus influenzae expressing beta-lactamase assessed as post-antibiotic sub-MIC effect at 0.3 times MIC concentration pretreated with 10 times MIC concentration for 1 hr followed by 1:1000 dilution by viable plate count method; assay type: functional
Staphylococcus aureus [33] = assay: Antibacterial activity against vancomycin-intermediate methicillin-resistant Staphylococcus aureus assessed as post-antibiotic sub-MIC effect at 0.3 times MIC concentration pretreated with 10 times MIC concentration for 1 hr followed by 1:1000 dilution by viable plate count method; assay type: functional
Acinetobacter baumannii [34] = assay: Antibacterial activity against Acinetobacter baumannii assessed as post-antibiotic sub-MIC effect at 0.2 times MIC concentration pretreated with 6 times MIC concentration for 1 hr followed by 1:1000 dilution by viable plate count method; assay type: functional

Question: With `CN(C)c1cc(NC(=O)CNC(C)(C)C)c(O)c2c1C[C@H]1C[C@H]3[C@H](N(C)C)C(O)=C(C(N)=O)C(=O)[C@@]3(O)C(O)=C1C2=O` [TIGECYCLINE] as the compound, how does the PAE (Streptococcus pneumoniae [1]) read?
Answer: 8.8 h

Question: And the PAE (Escherichia coli [2])?
Answer: 4.9 h

Question: What about the PAE (Acinetobacter baumannii [3]) of the same compound?
Answer: 1.8 h

Question: What about the PAE (Streptococcus pneumoniae [4]) of the same compound?
Answer: 9 h

Question: And the PAE (Klebsiella pneumoniae [5])?
Answer: 2.3 h

Question: And the PAE (Staphylococcus aureus [6])?
Answer: 5.2 h

Question: And the PAE (Streptococcus pneumoniae [7])?
Answer: 1.9 h

Question: And the PAE (Acinetobacter baumannii [8])?
Answer: 11.2 h

Question: And the PAE (Escherichia coli [9])?
Answer: 2.9 h

Question: What about the MIC (Streptococcus pneumoniae [10]) of the same compound?
Answer: 0.03 µg/mL (≈ 0.0512 µM)

Question: And the PAE (Acinetobacter baumannii [11])?
Answer: 11.2 h

Question: What about the PAE (Enterococcus faecalis [12]) of the same compound?
Answer: 0.4 h

Question: What about the MIC (Streptococcus pneumoniae [13]) of the same compound?
Answer: 0.06 µg/mL (≈ 0.102 µM)

Question: What about the PAE (Acinetobacter baumannii [14]) of the same compound?
Answer: 0.3 h

Question: What about the PAE (Streptococcus pneumoniae [15]) of the same compound?
Answer: 5.9 h

Question: And the PAE (Streptococcus pneumoniae [16])?
Answer: 8.8 h

Question: And the PAE (Staphylococcus aureus [17])?
Answer: 3.7 h

Question: What about the PAE (Enterobacter cloacae [18]) of the same compound?
Answer: 2.7 h

Question: What about the concentration at 1 h [19] of the same compound?
Answer: 600 ng/mL

Question: What about the PAE (Streptococcus pneumoniae [20]) of the same compound?
Answer: 0.5 h

Question: What about the PAE (Enterococcus faecalis [21]) of the same compound?
Answer: 0.2 h

Question: What about the PAE (Enterobacter cloacae [22]) of the same compound?
Answer: 1.2 h

Question: And the PAE (Klebsiella pneumoniae [23])?
Answer: 1.7 h

Question: And the PAE (Enterococcus faecalis [24])?
Answer: 0 h

Question: What about the PAE (Escherichia coli [25]) of the same compound?
Answer: 2.4 h

Question: And the PAE (Haemophilus influenzae [26])?
Answer: 2.8 h

Question: What about the PAE (Enterococcus faecalis [27]) of the same compound?
Answer: 7.6 h

Question: And the PAE (Haemophilus influenzae [28])?
Answer: 2.8 h

Question: And the MIC (Streptococcus pneumoniae [29])?
Answer: 0.03 µg/mL (≈ 0.0512 µM)

Question: And the PAE (Escherichia coli [30])?
Answer: 1.9 h

Question: And the PAE (Staphylococcus aureus [31])?
Answer: 2.9 h

Question: What about the PAE (Haemophilus influenzae [32]) of the same compound?
Answer: 5.4 h

Question: What about the PAE (Staphylococcus aureus [33]) of the same compound?
Answer: 9.9 h

Question: And the PAE (Acinetobacter baumannii [34])?
Answer: 5.2 h
